Data on three compounds can be found in EPA's ToxValDB 9.5 (doi:10.2903/j.efsa.2020.6230).

Converted amounts (≈) assume the structure as drawn.

Series [1] relates to Rattus norvegicus. The conditions noted are these: acute; oral; mortality.
Series [2] deals with Oncorhynchus mykiss. Particulars: for LC50: acute, duration: 96 hours, mortality.
The test system of series [3] is Pleurozium sp. The conditions noted are these: acute; duration: 72 hours; growth.
The test system of series [4] is Daphnia magna. Particulars: chronic/long-term; duration: 28 days; reproduction.
The subject of series [5] is Oryctolagus sp. The conditions noted are these: developmental; development.
Series [6] concerns Salmo salar. The conditions noted are these: acute; duration: 96 hours; mortality.
Series [7] has as its system Mus musculus. The conditions noted are these: acute; oral; mortality.
Series [8] concerns Tagia sp. The conditions noted are these: chronic/long-term; reproduction.
Series [9] relates to Anas platyrhynchos. The conditions noted are these: reproductive.
The subject of series [10] is Colinus virginianus. The conditions noted are these: acute; oral; mortality.
In series [11] the test system is Folsomia candida. The conditions noted are these: chronic/long-term; reproduction.
Series [12] relates to Apis mellifera. Particulars: acute, duration: 48 hours, mortality.
Series [13] relates to Aphidius rhopalosiphi. As to the kind of experiment: LR50; higher = less toxic. Particulars: not reported; mortality.

For orientation: LC50 means the concentration lethal to half of the exposed cells or organisms. Consider `O=C1NC(=O)C2CC=CCC12` (configuration not stated) [1,2,3,6-Tetrahydrophthalimide], for which the LD50 in [1] was not below 1470 mg/kg-day. The compound also showed an LC50 in [2] of more than 120 µg/mL.
In turn, `NC(=O)C1CC=CCC1C(=O)O` (configuration not stated) [6-[Hydroxy(imino)methyl]cyclohex-3-ene-1-carboxylic acid] showed an NOEC in series [3] of 32 mg/L. In [2], this compound displayed an LC50 of more than 120 µg/mL.
What is called NOAEL is the highest tested level that showed no adverse finding. On to `O=C1C2CC=CCC2C(=O)N1SC(Cl)(Cl)Cl` (configuration not stated) [Captan], for which the NOEC in series [4] was 0.4 mg/L; in series [8] it was 7.3 mg/kg; in [11], 100 mg/kg; in [2] (chronic/long-term, duration: 95 days, growth) it was 0.2 mg/L. In series [5], this compound gave an NOAEL of 20 mg/kg-day. In addition, the median lethal concentration (LC50) in series [6] came out at 0.0913 µg/mL (≈ 0.304 µM); in series [2], 0.0147 µg/mL (≈ 0.0489 µM). In addition, the LD50 in series [7] is 3720 mg/kg-day; in [10], more than 2000 mg/kg-day; in series [12] (dermal), more than 200 µg/piece; in series [12] (oral, unspecified), more than 100 µg/piece. The same compound displayed an NOEL in series [9] of 74.4 mg/kg-day. Also, the LR50 in series [13] is more than 3200 g/ha.
